This assay addresses T1, PDE7 (type VII phosphodiesterase) (Homo sapiens, UniProt Q13946).
T1 construct: endogenous in cells; host or cells: MOLT-4 (ATCC CRL-1582), soluble fraction, HiTrapQ anion-exchange fraction
The assay can be described thus: PDE7 inhibiting activity (3H-cAMP hydrolysis, active fraction from MOLT-4 cells). It counts as biochemical. To be noted: PDE7 fraction from MOLT-4 cells, 0.064 μM cAMP, 10 μM rolipram present, 2 hours at 25° C.; read-out: IC50 values for phosphodiesterase inhibiting activities (PDE7). Here is the method: To evaluate the compounds of the present invention for the ability to suppress PDE7 (type VII phosphodiesterase), the method of Biochemical Pharmacol. 48(6), 1219-1223 (1994) was partially modified to perform the following assay:
1) PDE7 (type VII phosphodiesterase) active fraction was obtained. That is, human acute lymphoblastoid lymphoma T cell strain MOLT-4 (purchasable from ATCC under ATCC No. CRL-1582) was cultured in RPMI1640 medium containing 10% fetal bovine serum to obtain 5×10^8 MOLT4 cells. The cells were harvested by centrifugation, and suspended in 10 ml of buffer A (25 mM tris-HCl, 5 mM 2-mercaptoethanol, 2 mM benzamidine, 2 mM EDTA, 0.1 mM 4-(2-aminoethyl)benzenesulfonyl hydrochloride, pH 7=7.5). The cells were homogenized in a Polytoron homogenizer, and centrifuged (4° C., 25,000 G, 10 min). The supernatant was further ultracentrifuged (4° C., 100,000 G, 60 min), and the resulting supernatant was filtered through a 0.2 μm filter to obtain a soluble fraction.
2) HiTrapQ column (5 ml×2) equilibrated with buffer A was charged with the resulting soluble fraction. Phosphodiesterase was eluted using 300 ml of buffer A containing a linear gradient solution of 0 to 0.8M sodium chloride to collect sixty 5 ml fractions. Each fraction was tested for cAMP metabolizing phosphodiesterase activity.
3) The test compounds at desired concentrations were each reacted for 2 hours at 25° C. in a reactant mixture containing 20 mM tris-HCl (pH 7.5), 1 mM MgCl2, 100 μM EDTA, 330 μg/ml bovine serum albumin, 4 μg/ml 5′-nucleotidase, 0.1 μCi^3H-cAMP (0.064 μM cAMP), 10 μM rolipram, and the type VII phosphodiesterase stored solution. QAE-Sephadex suspended in 10 mM HEPES-Na (pH 7.0) was added to the reaction mixture, and the mixture was allowed to stand for 5 minutes. Then, the supernatant was recovered, and QAE-Sephadex was further added, followed by allowing the mixture to stand for 5 minutes. Then, the resulting supernatant was measure for radioactivity.
4) IC50, as the concentration of the test compound that inhibited 50% of the metabolic activity of PDE7, was calculated for each of the compounds.

The source of these data is US7268128B2, “1,3,5-trisubstituted-5-phenyl and 5-pyridyl pyrazolopyrimidinone derivatives having PDE7 inhibiting action” (Ausbio Pharma Co., Ltd., priority 2001, dated 2007).

T1 sequence (Q13946 whole entry): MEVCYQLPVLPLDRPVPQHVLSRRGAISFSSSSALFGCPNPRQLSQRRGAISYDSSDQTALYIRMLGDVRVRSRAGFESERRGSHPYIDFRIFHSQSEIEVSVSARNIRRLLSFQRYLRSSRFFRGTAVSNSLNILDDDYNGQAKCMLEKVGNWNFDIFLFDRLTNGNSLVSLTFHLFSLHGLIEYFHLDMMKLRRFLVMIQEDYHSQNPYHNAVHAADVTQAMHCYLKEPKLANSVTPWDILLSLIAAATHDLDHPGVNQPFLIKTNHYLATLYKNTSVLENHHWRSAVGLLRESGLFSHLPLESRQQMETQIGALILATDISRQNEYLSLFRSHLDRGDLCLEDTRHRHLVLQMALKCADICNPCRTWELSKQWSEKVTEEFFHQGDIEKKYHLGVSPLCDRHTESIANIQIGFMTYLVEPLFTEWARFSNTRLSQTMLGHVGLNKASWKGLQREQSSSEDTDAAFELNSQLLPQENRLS

One may read the IC50 as the concentration that gives 50% inhibition. `Cc1nn(C2CCCCC2)c2c(=O)[nH]c(-c3ccccc3)nc12` [Example 1, 1-Cyclohexyl-3-methyl-5-phenyl-1,6-dihydro-7H-pyrazolo[4,3-d]pyrimidin-7-one]: the IC50 was ≤ 1 µM.

On to `Cc1nn(C2CCCCC2)c2c(=O)[nH]c(-c3ccc([N+](=O)[O-])cc3)nc12` [Example 2, 1-Cyclohexyl-3-methyl-5-(4-nitrophenyl)-1,6-dihydro-7H-pyrazolo[4,3-d]pyrimidin-7-one], for which the IC50 was ≤ 1 µM.

For the compound `Cc1nn(C2CCCCC2)c2c(=O)[nH]c(-c3ccc(N)cc3)nc12` [Example 3, 5-(4-Aminophenyl)-1-cyclohexyl-3-methyl-1,6-dihydro-7H-pyrazolo[4,3-d]pyrimidin-7-one], the IC50 is ≤ 1 µM.

On to `CC(=O)Nc1ccc(-c2nc3c(C)nn(C4CCCCC4)c3c(=O)[nH]2)cc1` [Example 4, N-[4-(1-cyclohexyl-3-methyl-7-oxo-6,7-dihydro-1H-pyrazolo[4,3-d]pyrimidin-5-yl)phenyl]acetamide], for which the IC50 was ≤ 1 µM.

For `COc1ccccc1-c1nc2c(C)nn(C3CCCCC3)c2c(=O)[nH]1` [Example 5, 1-Cyclohexyl-5-(2-methoxyphenyl)-3-methyl-1,6-dihydro-7H-pyrazolo[4,3-d]pyrimidin-7-one], the IC50 is ≤ 1 µM.

As to `Cc1nn(C2CCCCC2)c2c(=O)[nH]c(-c3ccccn3)nc12` [Example 6, 1-Cyclohexyl-3-methyl-5-(2-pyridinyl)-1,6-dihydro-7H-pyrazolo[4,3-d]pyrimidin-7-one], the IC50 is ≤ 1 µM.

For `Cc1nn(C2CCCCC2)c2c(=O)[nH]c(-c3ccc(N4CCN(C)CC4)cc3)nc12` [Example 7, 1-Cyclohexyl-3-methyl-5-[4-(4-methyl-1-piperazinyl)phenyl]-1,6-dihydro-7H-pyrazolo[4,3-d]pyrimidin-7-one], the IC50 is ≤ 1 µM.

On to `COc1cc([N+](=O)[O-])ccc1-c1nc2c(C)nn(C3CCCCC3)c2c(=O)[nH]1` [Example 8, 1-Cyclohexyl-5-(2-methoxy-4-nitrophenyl)-3-methyl-1,6-dihydro-7H-pyrazolo[4,3-d]pyrimidin-7-one], for which the IC50 is ≤ 1 µM.

As for `COc1cc(NC(C)=O)ccc1-c1nc2c(C)nn(C3CCCCC3)c2c(=O)[nH]1` [Example 10, N-[4-(1-cyclohexyl-3-methyl-7-oxo-6,7-dihydro-1H-pyrazolo[4,3-d]pyrimidin-5-yl)-3-methoxyphenyl]acetamide], the IC50 was ≤ 1 µM.

For `Cc1nn(C2CCCCC2)c2c(=O)[nH]c(-c3ccc(N)cn3)nc12` [Example 11, 5-(5-Amino-2-pyridinyl)-1-cyclohexyl-3-methyl-1,6-dihydro-7H-pyrazolo[4,3-d]pyrimidin-7-one], the IC50 is ≤ 1 µM.

Regarding `CC(=O)Nc1ccc(-c2nc3c(C)nn(C4CCCCC4)c3c(=O)[nH]2)nc1` [Example 12, N-[6-(1-cyclohexyl-3-methyl-7-oxo-1H-pyrazolo[4,3-d]pyrimidin-5-yl)-3-pyridinyl]acetamide], the 50% inhibitory concentration (IC50) was ≤ 1 µM.

Regarding `CCOc1ccccc1-c1nc2c(C)nn(C3CCCCC3)c2c(=O)[nH]1` [Example 13, 1-Cyclohexyl-5-(2-ethoxyphenyl)-3-methyl-1,6-dihydro-7H-pyrazolo[4,3-d]pyrimidin-7-one], the IC50 was ≤ 1 µM.

Consider `Cc1nn(C2CCCCC2)c2c(=O)[nH]c(-c3ccc(N4CCC(O)CC4)cc3)nc12` [Example 14, 1-Cyclohexyl-5-[4-(4-hydroxy-1-piperidinyl)phenyl]-3-methyl-1,6-dihydro-7H-pyrazolo[4,3-d]pyrimidin-7-one], for which the IC50 was ≤ 1 µM.

Consider `COc1cc(N2CCN(C)CC2)ccc1-c1nc2c(C)nn(C3CCCCC3)c2c(=O)[nH]1` [Example 16, 1-Cyclohexyl-5-[2-methoxy-4-(4-methyl-1-piperazinyl)phenyl]-3-methyl-1,6-dihydro-7H-pyrazolo[4,3-d]pyrimidin-7-one], for which the IC50 was ≤ 1 µM.

For `Cc1nn(C2CCCCC2)c2c(=O)[nH]c(-c3cc(Cl)ccn3)nc12` [Example 17, 5-(4-Chloro-2-pyridinyl)-1-cyclohexyl-3-methyl-1,6-dihydro-7H-pyrazolo[4,3-d]pyrimidin-7-one], the IC50 is ≤ 1 µM.

Take `COc1ccc(F)cc1-c1nc2c(C)nn(C3CCCCC3)c2c(=O)[nH]1` [Example 18, 1-Cyclohexyl-5-(5-fluoro-2-methoxyphenyl)-3-methyl-1,6-dihydro-7H-pyrazolo[4,3-d]pyrimidin-7-one]: the IC50 was ≤ 1 µM.

Consider `COc1ccccc1-c1nc2c(c(C3CCCCC3)nn2C)c(=O)[nH]1` [Example 24, 3-Cyclohexyl-6-(2-methoxyphenyl)-1-methyl-1,5-dihydro-4H-pyrazolo[3,4-d]pyrimidin-4-one], for which the IC50 was ≤ 1 µM.

Take `Cn1nc(C2CCCCC2)c2c(=O)[nH]c(-c3ccccn3)nc21` [Example 25, 3-Cyclohexyl-1-methyl-6-(2-pyridinyl)-1,5-dihydro-4H-pyrazolo[3,4-d]pyrimidin-4-one]: the IC50 was ≤ 1 µM.

For `COc1cc(N2CCN(C)CC2)ccc1-c1nc2c(c(C3CCCCC3)nn2C)c(=O)[nH]1` [Example 27, 3-Cyclohexyl-6-[2-methoxy-4-(4-methyl-1-piperazinyl)phenyl]-1-methyl-1,5-dihydro-4H-pyrazolo[3,4-d]pyrimidin-4-one], the half-inhibitory concentration (IC50) was ≤ 0.01 µM.

Turning to `COc1cc(N2CCN(C)CC2)ccc1-c1nc2c(c(C3CCCCC3)nn2C)c(=O)[nH]1` [Example 28, 3-Cyclohexyl-6-[2-methoxy-4-(4-methyl-1-piperazinyl)phenyl]-1-methyl-1,5-dihydro-4H-pyrazolo[3,4-d]pyrimidin-4-one monomethanesulfonate], the IC50 was ≤ 0.01 µM.

As for `COc1cc(N2CCC3(CC2)OCCO3)ccc1-c1nc2c(c(C3CCCCC3)nn2C)c(=O)[nH]1` [Example 29, 3-Cyclohexyl-6-[4-(1,4-dioxa-8-azaspiro[4,5]deca-8-yl)-2-methoxyphenyl]-1-methyl-1,5-dihydro-4H-pyrazolo[3,4-d]pyrimidin-4-one], the IC50 is ≤ 1 µM.

For the compound `COc1cc(N2CCC(O)CC2)ccc1-c1nc2c(c(C3CCCCC3)nn2C)c(=O)[nH]1` [Example 31, 3-Cyclohexyl-6-[4-(4-hydroxy-1-piperidinyl)-2-methoxyphenyl]-1-methyl-1,5-dihydro-4H-pyrazolo[3,4-d]pyrimidin-4-one], the IC50 is ≤ 0.01 µM.

`COc1cc(N2CCC(O)CC2)ccc1-c1nc2c(c(C3CCCCC3)nn2C)c(=O)[nH]1` [Example 32, 3-Cyclohexyl-6-[4-(4-hydroxy-1-piperidinyl)-2-methoxyphenyl]-1-methyl-1,5-dihydro-4H-pyrazolo[3,4-d]pyrimidin-4-one monomethanesulfonate]: the IC50 was ≤ 0.01 µM.

Take `COCCOc1ccc(-c2nc3c(c(C4CCCCC4)nn3C)c(=O)[nH]2)c(OC)c1` [Example 34, 3-Cyclohexyl-6-[2-methoxy-4-(2-methoxyethoxy)phenyl]-1-methyl-1,5-dihydro-4H-pyrazolo[3,4-d]pyrimidin-4-one]: the IC50 was ≤ 1 µM.

Consider `COc1cc(OCCO)ccc1-c1nc2c(c(C3CCCCC3)nn2C)c(=O)[nH]1` [Example 37, 3-Cyclohexyl-6-[4-(2-hydroxyethoxy)-2-methoxyphenyl]-1-methyl-1,5-dihydro-4H-pyrazolo[3,4-d]pyrimidin-4-one], for which the IC50 was ≤ 1 µM.

For `COc1cc(O[C@H]2CCOC2)ccc1-c1nc2c(c(C3CCCCC3)nn2C)c(=O)[nH]1` [Example 38, 3-Cyclohexyl-6-{2-methoxy-4-[(3S)-tetrahydro-3-furanyloxy]phenyl}-1-methyl-1,5-dihydro-4H-pyrazolo[3,4-d]pyrimidin-4-one], the IC50 was ≤ 0.01 µM.

`COc1cc(O[C@@H]2CCOC2)ccc1-c1nc2c(c(C3CCCCC3)nn2C)c(=O)[nH]1` [Example 39, 3-Cyclohexyl-6-{2-methoxy-4-[(3R)-tetrahydro-3-furanyloxy]phenyl}-1-methyl-1,5-dihydro-4H-pyrazolo[3,4-d]pyrimidin-4-one]: the IC50 was ≤ 1 µM.

As for `COc1cc(OCC(=O)O)ccc1-c1nc2c(c(C3CCCCC3)nn2C)c(=O)[nH]1` [Example 41, [4-(3-cyclohexyl-1-methyl-4-oxo-4,5-dihydro-1H-pyrazolo[3,4-d]pyrimidin-6-yl)-3-methoxyphenoxy]acetic acid], the IC50 is ≤ 1 µM.

In the case of `COc1cc(OC2CCN(C)CC2)ccc1-c1nc2c(c(C3CCCCC3)nn2C)c(=O)[nH]1` [Example 42, 3-Cyclohexyl-6-{2-methoxy-4-[(-methyl-4-piperidinyl)oxy]phenyl}-1-methyl-1,5-dihydro-4H-pyrazolo[3,4-d]pyrimidin-4-one monomaleate], the half-inhibitory concentration (IC50) was ≤ 1 µM.
